Reference: US20170037078A1, “2' -DIS[…] FOR TREATMENT OF THE FL[…] OF VIRUSES AND CANCER” (Cocrystal Pharma, Inc., priority 2014, published 2017)
“Also recorded” adds a separate entry of the source. Where two headings read alike, the source gives them in different places.

Legend:
[1] = system: Primary human bone marrow mononuclear cells; assay: Bone Marrow Colony Forming Cell Assay (BFU-E); format: cell-based
Procedure: Primary human bone marrow mononuclear cells were obtained commercially from Cambrex Bioscience (Walkersville, Md.). CFU-GM assays were carried out using a bilayer soft agar in the presence of 50 units/mL human recombinant granulocyte/macrophage colony-stimulating factor, while BFU-E assays used a […] matrix containing 1 unit/mL erythropoietin (see Sommadossi J P, Carlisle R. Toxicity of 3′-azido-3′-deoxythymidine and 9-(1,3-dihydroxy-2-propoxymethyl) guanine for normal human hepatopoietic progenitor cells in vitro. Antimicrob. Agents Chemother. 1987; 31: 452-454; Sommadossi, J P, Schinazi, R F, Chu, C K, and Xie, M Y. Comparison of cytotoxicity of the (−) and (+) enantiomer of 2′,3′-dideoxy-3′-thiacytidine in normal human bone marrow progenitor cells. Biochem. Pharmacol. 1992; 44:1921-1925). Each experiment was performed in duplicate in cells from three different donors. AZT was used as a positive control. […] The 50% inhibitory concentration (IC50) was obtained by least-squares linear regression analysis of the logarithm of drug concentration versus BFU-E survival fractions. Statistical analysis was performed with Student's t test for independent non-paired samples.

[2] = system: HepG2 cells; assay: Mitochondrial toxicity assay: lactic acid production in HepG2 cells; format: cell-based; settings: 14-day assay
Procedure: To measure the effects of the compounds on lactic acid production, HepG2 cells from a stock culture were diluted and plated in 12-well culture plates at 2.5×10^4 cells per well. […] […] The culture medium was then filtered, and the lactic acid content in the medium was determined using a colorimetric lactic acid assay (Sigma-Aldrich). Since lactic acid product can be considered a marker for impaired mitochondrial function, elevated levels of lactic acid production detected in cells grown in the presence of test compounds would indicate a drug-induced cytotoxic effect. • ii) Effect of Compounds on Mitochondrial DNA Synthesis:

[3] = system: HepG2 cells; assay: Mitochondrial toxicity assay: mitochondrial and nuclear DNA levels in HepG2 cells; format: cell-based; settings: 14-day assay
Procedure: This assay was used in all studies described in this application that determine the effect of compounds on mitochondrial DNA content. In this assay, low-passage-number HepG2 cells were seeded at 5,000 cells/well in collagen-coated 96-well plates. Test compounds were added to the medium to obtain final concentrations of 0 μM, 0.1 μM, 10 μM and 100 μM. […] The mitochondrial cytochrome c oxidase subunit II (COXII) gene and the β-actin or rRNA gene were amplified from 5 μl of the eluted nucleic acids using a multiplex Q-PCR protocol with suitable primers and probes for both target and reference amplifications. […] For exon 3 of the […] gene (GenBank accession number E01094) the sense, probe, and antisense primers are 5′-[…]-3′, 5′-6-[…]-3′ and 5′-[…]-3′, respectively. The primers and probes for the rRNA gene are commercially available from Applied Biosystems. […] The arithmetic formula for this approach is given by 2-ΔΔCT, where ΔΔCT is (CT for average target test sample−CT for target control)−(CT for average reference test−CT for reference control) (see Johnson M R, K Wang, J B Smith, M J Heslin, R B Diasio. Quantitation of dihydropyrimidine dehydrogenase expression by real-time reverse transcription polymerase chain reaction. Anal. Biochem. 2000; 278:175-184). A decrease in mitochondrial DNA content in cells grown in the presence of drug indicated mitochondrial toxicity.

[4] = system: HCV GT 1b replicon (Huh-7 cells); assay: HCV Replicon Assay; format: cell-based
Procedure: (§1) Huh 7 Clone B cells containing HCV Replicon RNA were seeded in a 96-well plate at 5000 cells/well, and the compounds tested at 10 μM in triplicate immediately after seeding. Following five days incubation (37° C., 5% CO2), total cellular RNA was isolated by using versaGene RNA purification kit from Gentra. Replicon RNA and an internal control (TaqMan rRNA control reagents, Applied Biosystems) were amplified in a single step multiplex Real Time RT-PCR Assay. The antiviral effectiveness of the compounds was calculated by subtracting the threshold RT-PCR cycle of the test compound from the threshold RT-PCR cycle of the no-drug control (ΔCt HCV). A ΔCt of 3.3 equals a 1-log reduction (equal to 90% less starting material) in Replicon RNA levels. The cytotoxicity of the compounds was also calculated by using the ΔCt rRNA values. 2′-C-Me-C was used as the positive control. To determine EC90 and IC50 values^2, ΔCt: values were first converted into fraction of starting material^3 and then were used to calculate the % inhibition.

[5] = system: Vero; assay: Cellular toxicity assay in Vero cells; format: cell-based
Procedure: (§2) The toxicity of the compounds was assessed in Vero, human PBM, CEM (human lymphoblastoid), MT-2, and HepG2 cells, as described previously (see Schinazi R. F., Sommadossi J.-P., Saalmann V., Cannon D. L., Xie M.-Y., Hart G. C., Smith G. A. & Hahn E. F. Antimicrob. Agents Chemother. 1990, 34, 1061-67). Cycloheximide was included as positive cytotoxic control, and untreated cells exposed to solvent were included as negative controls. The cytotoxicity IC50 was obtained from the concentration-response curve using the median effective method described previously (see Chou T.-C. & Talalay P. Adv. Enzyme Regul. 1984, 22, 27-55; Belen'kii M. S. & Schinazi R. F. Antiviral Res. 1994, 25, 1-11).

[6] = system: Human PBM; assay: Cellular toxicity assay in human PBM cells; format: cell-based; settings: Human PBM cells
Procedure: as §2

[7] = system: Huh-7 cells; assay: Cytotoxicity in HCV replicon assay (ΔCt rRNA); format: cell-based; settings: HCV GT 1b replicon, Huh-7 cells
Procedure: as §1

[8] = system: CEM (human lymphoblastoid); assay: Cellular toxicity assay in CEM cells; format: cell-based
Procedure: as §2

[9] = Cellular toxicity assay in Vero cells; format: cell-based; settings: African green monkey, read-out: Cytotoxicity, CC50
Procedure: as §2

[10] = Cellular toxicity assay in human PBM cells; format: cell-based; settings: human, human PBM cells; read-out: Cytotoxicity, CC50
Procedure: as §2

[11] = Cytotoxicity in HCV replicon assay (ΔCt rRNA); format: cell-based; settings: human, Huh-7 Clone B cells containing HCV GT 1b replicon RNA; HCV GT 1b replicon Huh-7 cells
Procedure: as §1

[12] = Cellular toxicity assay in CEM cells; format: cell-based, human; settings: human, CEM lymphoblastoid cells, read-out: Cytotoxicity, CC50
Procedure: as §2

[13] = molecular target: Human DNA Polymerase Pol Beta (Homo sapiens, UniProt P06746); assay: Inhibition of Human DNA Polymerase Beta; format: biochemical
[14] = molecular target: T1, Human DNA Polymerase Pol Gamma (Homo sapiens, UniProt P54098); assay: Inhibition of Human DNA Polymerase Gamma; format: biochemical
T1 construct: made in house
T1 sequence (P54098 26-1239 limits assumed): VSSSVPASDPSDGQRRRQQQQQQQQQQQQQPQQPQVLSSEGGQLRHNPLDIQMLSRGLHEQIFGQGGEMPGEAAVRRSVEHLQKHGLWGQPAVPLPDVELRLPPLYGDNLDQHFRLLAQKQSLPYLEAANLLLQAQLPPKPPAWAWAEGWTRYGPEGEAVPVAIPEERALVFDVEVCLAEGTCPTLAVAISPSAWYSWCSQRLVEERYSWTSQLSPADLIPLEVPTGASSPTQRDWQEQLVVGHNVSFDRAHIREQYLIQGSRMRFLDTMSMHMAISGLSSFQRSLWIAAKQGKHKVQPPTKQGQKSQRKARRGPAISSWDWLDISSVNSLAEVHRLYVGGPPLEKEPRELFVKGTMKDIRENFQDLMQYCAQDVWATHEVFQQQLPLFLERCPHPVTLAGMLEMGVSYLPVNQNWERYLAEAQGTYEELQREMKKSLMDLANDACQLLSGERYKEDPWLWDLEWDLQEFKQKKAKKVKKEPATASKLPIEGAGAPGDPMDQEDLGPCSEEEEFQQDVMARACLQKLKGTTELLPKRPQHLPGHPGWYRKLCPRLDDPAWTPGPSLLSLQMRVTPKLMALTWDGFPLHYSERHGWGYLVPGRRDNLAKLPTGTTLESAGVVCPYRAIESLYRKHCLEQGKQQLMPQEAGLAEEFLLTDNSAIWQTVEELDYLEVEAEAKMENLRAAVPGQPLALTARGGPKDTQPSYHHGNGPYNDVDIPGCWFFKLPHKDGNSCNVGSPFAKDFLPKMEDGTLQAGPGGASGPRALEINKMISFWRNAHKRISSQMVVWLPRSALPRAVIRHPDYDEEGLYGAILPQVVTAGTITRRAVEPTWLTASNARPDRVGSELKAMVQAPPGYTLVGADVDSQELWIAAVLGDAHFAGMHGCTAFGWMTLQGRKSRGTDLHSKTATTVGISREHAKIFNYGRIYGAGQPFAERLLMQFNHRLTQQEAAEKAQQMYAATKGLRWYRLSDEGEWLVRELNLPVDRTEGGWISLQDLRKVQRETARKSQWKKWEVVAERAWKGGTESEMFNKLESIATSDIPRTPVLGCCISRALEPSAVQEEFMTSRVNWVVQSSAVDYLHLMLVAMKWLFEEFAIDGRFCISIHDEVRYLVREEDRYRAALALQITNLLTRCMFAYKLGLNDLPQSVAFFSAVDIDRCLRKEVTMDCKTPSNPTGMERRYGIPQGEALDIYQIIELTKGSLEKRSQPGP
T1 sequence (Q9UHN1 26-485 partner limits assumed): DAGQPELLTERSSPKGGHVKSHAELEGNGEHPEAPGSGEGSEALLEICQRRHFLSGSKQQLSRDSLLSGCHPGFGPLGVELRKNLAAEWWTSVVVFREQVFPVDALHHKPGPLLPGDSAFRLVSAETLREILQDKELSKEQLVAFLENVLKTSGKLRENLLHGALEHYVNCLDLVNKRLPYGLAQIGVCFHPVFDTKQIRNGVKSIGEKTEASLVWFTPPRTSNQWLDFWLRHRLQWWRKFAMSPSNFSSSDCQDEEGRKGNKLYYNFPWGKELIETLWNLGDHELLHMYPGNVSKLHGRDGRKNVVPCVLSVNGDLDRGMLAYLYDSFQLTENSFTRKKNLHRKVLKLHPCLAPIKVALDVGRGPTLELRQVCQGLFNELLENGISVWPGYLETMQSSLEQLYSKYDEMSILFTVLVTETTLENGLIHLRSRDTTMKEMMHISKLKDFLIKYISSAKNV

Compound | IC50 ([1]; Donor 2) [µM] | Lactic acid Production (% of control) ([2]; 10 μM) | Lactic acid Production (% of control) ([2]; 50 μM) | Summary (mitochondrial toxicity) [3] | % Inhibition MtDNA ([3]; 10 μM) [%] | % Inhibition nDNA ([3]; 10 μM) [%] | MtDNA Content (% of control) ([3]; 10 μM) | MtDNA Content (% of control) ([3]; 50 μM) | IC50 ([3]; read-out: IC50, MtDNA) [µM] | IC50 ([3]; read-out: IC50, nDNA) [µM] | % inhibition at maximum concentration evaluated [5] [%] | % inhibition at maximum concentration evaluated [6] [%] | % inhibition at maximum concentration evaluated [8] [%] | also measured
Cc1cn([C@H]2C[C@H](N=[N+]=[N-])[C@@H](CO)O2)c(=O)[nH]c1=O [AZT, reference compound] | 2.9 | – | – | – | – | – | – | – | – | – | – | – | – | IC50 ([1]; Donor 1): 0.3 µM
O=c1ccn(C2OC(CO)C(O)C2(F)Cl)c(=O)[nH]1 (centres unmarked) [Compound 10] | – | 84.59 ± 7.30 % of control | 122.3 ± 5.80 % of control | non-toxic; also recorded: not toxic | < 1 | 8.76 | 161 (113-230) % of control | 116 (77-175) % of control | > 50 | > 50 | −30.7 | −4.1 | −48.1 | % Inhibition MtDNA ([3]; 50 μM): <1/<1%; % Inhibition nDNA ([3]; 50 μM): <1/<1%; EC50 [4]: > 10 µM; EC90 [4]: > 10 µM; CC50 ([5]; read-out: Cytotoxicity, CC50): > 100 µM; CC50 ([6]; read-out: Cytotoxicity, CC50): > 100 µM; CC50 [7]: > 10 µM; CC50 ([8]; read-out: Cytotoxicity, CC50): > 100 µM
CC(C)OC(=O)[C@H](C)NP(=O)(OC[C@H]1O[C@@H](n2ccc(=O)[nH]c2=O)C(F)(Cl)[C@H]1O)Oc1ccccc1 (stereo partly drawn) [Compound 12, (2S)-isopropyl-2-(((4-chloro-5-(2,4-dioxo-3,4-dihydropyrimidin-1 (2H)-yl-4-fluoro-3-hydroxytetrahydrofuran-2-yl)methoxy) (phenoxy)phosphoryl)amino)propanoate] | > 100 | 60.20 ± 1.25 % of control | 55.49 ± 0.88 % of control | non-toxic; also recorded: not toxic | – | – | 129 (117-143) % of control | 84 (68-102) % of control | – | – | 17.4 | 36.2 | −4.8 | inhibition at 10 µM ([3]; Homo sapiens, 336 h, 10 μM, read-out: % Inhibition MtDNA): < 1%; inhibition at 10 µM ([3]; Homo sapiens, 336 h, 10 μM, read-out: % Inhibition nDNA): < 1%; inhibition at 50 µM ([3]; Homo sapiens, 336 h, 50 μM, read-out: % Inhibition MtDNA): 27%; inhibition at 50 µM ([3]; Homo sapiens, 336 h, 50 μM, read-out: % Inhibition nDNA): 12.8%; IC50 ([3]; Homo sapiens, 336 h, read-out: IC50, MtDNA): > 50 µM; IC50 ([3]; Homo sapiens, 336 h, read-out: IC50, nDNA): > 50 µM; IC50 ([1]; Homo sapiens, Donor 1): > 100 µM; EC50 ([4]; Hepatitis C virus, GT1B): 0.1 to 1 µM; EC90 ([4]; Hepatitis C virus, GT1B): 0.1 to 1 µM; CC50 [9]: > 100 µM; CC50 [10]: > 100 µM; CC50 at 5 days [11]: > 10 µM; CC50 [12]: > 100 µM
Nc1ccn([C@H]2CC[C@@H](CO)O2)c(=O)n1 [ddC, reference compound] | – | 325.93 ± 27.05 % of control | – | toxic | 95.5 | 52.6 | 9.5 (5.7-16.0) % of control | – | < 10 | ≤ 10 | – | – | – | –
Cc1cn([C@H]2CC[C@@H](COP(=O)(O)OP(=O)(O)OP(=O)(O)O)O2)c(=O)[nH]c1=O [ddTTP] | – | – | – | – | – | – | – | – | – | – | – | – | – | IC50 [13]: 18 µM; IC50 [14]: 43 µM
